US20230027361A1, “METTL3 MODULATORS” (priority 2019, published 2023)

What follows are molecules tested against METTL3/METTL14 (Homo sapiens, UniProt Q86U44) (assay: METTL3-14 Standard Enzyme Assay (METTL3 biochemical assay)). Details: METTL3 biochemical assay; read-out: METTL3 IC50.
Sequence of METTL3/METTL14 (Q86U44 whole entry, species assumed): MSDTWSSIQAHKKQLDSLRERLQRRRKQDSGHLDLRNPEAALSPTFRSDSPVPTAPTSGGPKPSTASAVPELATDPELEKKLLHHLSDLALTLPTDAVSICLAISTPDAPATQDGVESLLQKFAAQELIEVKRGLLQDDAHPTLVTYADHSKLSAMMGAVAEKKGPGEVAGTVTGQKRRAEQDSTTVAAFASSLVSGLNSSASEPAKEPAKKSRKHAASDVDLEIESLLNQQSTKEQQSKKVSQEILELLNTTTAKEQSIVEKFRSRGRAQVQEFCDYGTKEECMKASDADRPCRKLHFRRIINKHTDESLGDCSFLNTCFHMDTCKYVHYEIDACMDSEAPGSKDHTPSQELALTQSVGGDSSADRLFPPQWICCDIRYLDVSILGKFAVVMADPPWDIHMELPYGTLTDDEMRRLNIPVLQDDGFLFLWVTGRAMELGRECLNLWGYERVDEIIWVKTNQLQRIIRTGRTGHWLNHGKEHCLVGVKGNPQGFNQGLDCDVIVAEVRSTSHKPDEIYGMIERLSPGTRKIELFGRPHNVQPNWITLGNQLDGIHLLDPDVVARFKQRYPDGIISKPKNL
Sequence of METTL3/METTL14 (Q9HCE5 whole entry partner, species assumed): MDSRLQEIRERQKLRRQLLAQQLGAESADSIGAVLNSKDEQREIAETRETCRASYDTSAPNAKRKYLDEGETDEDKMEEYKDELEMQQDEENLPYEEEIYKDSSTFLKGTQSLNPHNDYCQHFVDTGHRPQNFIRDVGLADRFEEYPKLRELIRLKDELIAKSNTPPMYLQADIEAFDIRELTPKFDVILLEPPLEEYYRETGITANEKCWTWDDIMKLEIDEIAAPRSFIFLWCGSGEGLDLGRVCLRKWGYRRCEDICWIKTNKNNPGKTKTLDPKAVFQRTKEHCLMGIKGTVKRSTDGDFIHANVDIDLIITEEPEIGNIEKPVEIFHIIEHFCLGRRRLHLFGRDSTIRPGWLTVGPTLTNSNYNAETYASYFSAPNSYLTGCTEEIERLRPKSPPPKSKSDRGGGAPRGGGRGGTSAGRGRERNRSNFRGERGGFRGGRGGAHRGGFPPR
In short: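 Tritium transfer from ³H-SAM (100 nM) to biotinylated RNA (100 nM) captured on streptavidin flashplates and counted by scintillation. Enzyme complex (2.5 nM) with compound, 5 min preincubation, 30 min reaction at ambient temperature, HEPES pH 7.5 buffer, stopped by excess unlabeled SAM.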
With CNc1ccc2ccc(OC[C@H]3O[C@@H](n4cc(C(F)(F)F)c5c(N)ncnc54)[C@@H](F)[C@@H]3O)cc2n1 [I-38] the IC50 was 10 to 100 nM.
CNc1ccc2ccc(OC[C@H]3O[C@@H](n4cc(Br)c5c(N)nccc54)[C@@H](F)[C@@H]3O)cc2n1 [I-41] was tested, and the IC50 was 100 to 1000 nM.
CNc1ccc2ccc(OC[C@H]3O[C@@H](n4cc(C)c5c(N)ncnc54)[C@@H](F)[C@@H]3O)cc2n1 [I-44] showed an IC50 of 10 to 100 nM.
In the case of CNc1ccc2ccc(OC[C@H]3C[C@@H](n4cc(C5CCCC5)c5c(N)ncnc54)C[C@@H]3O)cc2n1 [I-50], the IC50 is reported as 10 to 100 nM.
CCNc1ccc2ccc(OC[C@H]3O[C@@H](n4ccc5c(N)ncnc54)[C@H](O)[C@@H]3O)cc2n1 [I-67] was tested, and the IC50 was less than 10 nM.
Nc1ncnc2c1ccn2[C@@H]1O[C@H](CCc2ccc3ccc(N4CCCC4)nc3c2)[C@@H](O)[C@H]1O [I-68] gave an IC50 of 10 to 100 nM.

What follows are molecules tested against METTL1/WDR4 (Homo sapiens, UniProt Q9UBP6) (assay: METTL1 Assay (METTL1 biochemical assay)). Details: read-out: METTL1 IC50; METTL1 biochemical assay.
Sequence of METTL1/WDR4 (Q9UBP6 whole entry, species assumed): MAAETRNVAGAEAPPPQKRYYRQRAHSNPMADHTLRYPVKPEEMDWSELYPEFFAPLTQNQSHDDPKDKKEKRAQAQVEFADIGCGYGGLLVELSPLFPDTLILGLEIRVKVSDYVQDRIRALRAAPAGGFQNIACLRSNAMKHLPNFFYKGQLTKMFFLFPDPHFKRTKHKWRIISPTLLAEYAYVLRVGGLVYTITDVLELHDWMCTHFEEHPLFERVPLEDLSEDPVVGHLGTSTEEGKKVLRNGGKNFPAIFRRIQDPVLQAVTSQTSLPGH
Sequence of METTL1/WDR4 (P57081 whole entry partner, species assumed): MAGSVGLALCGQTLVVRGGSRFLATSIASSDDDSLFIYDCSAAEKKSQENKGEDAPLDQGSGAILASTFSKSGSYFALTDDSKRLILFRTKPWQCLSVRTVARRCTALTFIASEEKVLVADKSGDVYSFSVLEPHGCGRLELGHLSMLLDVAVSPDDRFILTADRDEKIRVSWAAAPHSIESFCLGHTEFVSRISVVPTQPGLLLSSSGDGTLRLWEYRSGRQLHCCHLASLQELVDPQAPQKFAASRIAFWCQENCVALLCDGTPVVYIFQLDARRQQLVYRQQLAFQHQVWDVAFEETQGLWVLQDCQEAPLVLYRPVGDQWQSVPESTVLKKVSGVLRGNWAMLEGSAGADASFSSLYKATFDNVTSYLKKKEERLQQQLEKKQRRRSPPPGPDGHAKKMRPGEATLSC
In short: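 Radiometric methyltransfer by METTL1/WDR4 (6.25 nM f.c., 5 min preincubation) at ambient temperature in HEPES pH 7.5, KCl, MgCl2, DTT; started with 25 nM 3′-biotinylated RNA and 60 nM 3H-SAM, run 20 min, quenched with 15 μM cold SAM. Product captured on streptavidin flashplates (2 h, 25° C), counted by scintillation.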
CNc1ccc2ccc(OC[C@H]3O[C@@H](n4cc(C(F)(F)F)c5c(N)ncnc54)[C@@H](F)[C@@H]3O)cc2n1 [I-38] was tested, and the IC50 was greater than 1000 nM.
Work on CNc1ccc2ccc(OC[C@H]3O[C@@H](n4cc(Br)c5c(N)nccc54)[C@@H](F)[C@@H]3O)cc2n1 [I-41] yielded an IC50 greater than 1000 nM.
CNc1ccc2ccc(OC[C@H]3O[C@@H](n4cc(C)c5c(N)ncnc54)[C@@H](F)[C@@H]3O)cc2n1 [I-44] was tested, and the IC50 was greater than 1000 nM.
CNc1ccc2ccc(OC[C@H]3C[C@@H](n4cc(C5CCCC5)c5c(N)ncnc54)C[C@@H]3O)cc2n1 [I-50] gave an IC50 greater than 1000 nM.
CCNc1ccc2ccc(OC[C@H]3O[C@@H](n4ccc5c(N)ncnc54)[C@H](O)[C@@H]3O)cc2n1 [I-67] showed an IC50 greater than 1000 nM.
In the case of Nc1ncnc2c1ccn2[C@@H]1O[C@H](CCc2ccc3ccc(N4CCCC4)nc3c2)[C@@H](O)[C@H]1O [I-68], the IC50 is reported as greater than 1000 nM.

What follows are molecules tested against T1, METTL16 (Homo sapiens, UniProt Q86W50) (assay: METTL16 Assay (METTL16 biochemical assay)). Details: read-out: METTL16 IC50.
T1 sequence (Q86W50 1-562): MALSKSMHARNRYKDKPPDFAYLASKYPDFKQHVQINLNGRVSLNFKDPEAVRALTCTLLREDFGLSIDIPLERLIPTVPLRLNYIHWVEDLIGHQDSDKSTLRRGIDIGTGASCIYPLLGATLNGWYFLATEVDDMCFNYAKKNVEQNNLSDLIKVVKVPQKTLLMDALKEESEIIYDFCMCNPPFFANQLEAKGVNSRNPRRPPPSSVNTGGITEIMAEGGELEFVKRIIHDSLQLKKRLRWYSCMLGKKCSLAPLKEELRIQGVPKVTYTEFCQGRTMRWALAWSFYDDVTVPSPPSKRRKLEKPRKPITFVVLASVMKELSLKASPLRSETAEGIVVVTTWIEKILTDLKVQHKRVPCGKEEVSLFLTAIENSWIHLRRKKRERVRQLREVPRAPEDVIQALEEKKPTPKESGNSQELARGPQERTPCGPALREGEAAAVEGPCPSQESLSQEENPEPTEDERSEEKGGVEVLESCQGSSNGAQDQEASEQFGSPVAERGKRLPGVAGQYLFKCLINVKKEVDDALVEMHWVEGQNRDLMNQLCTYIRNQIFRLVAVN
Protocol: Assays were performed in a 25 μl-volume in 384-well V-bottom polypropylene microplates (Greiner Bio-One, cat. No. 781280) at ambient temperature. Optimized 1× assay buffer was 20 mM HEPES pH 7.5, 50 mM KCl, 1 mM DTT, 0.01% Tween, 0.01% BSG, 0.004 U/μl RNAseOUT (cat. No. 10777019, ThermoFisher Scientific, Waltham, Mass.). For compound screening METTL16 (final concentration, f.c.=100 nM) was added using a Multidrop Combi (ThermoFisher Scientific, Waltham, Mass.) and preincubated for 5 min. Reactions were started by adding 3′ biotinylated RNA ([…]-biotin) (f.c.=50 nM), 3H-SAM (f.c.=200 nM) and non-radiolabeled SAM (f.c.=800 nM) substrates. Reactions proceeded for 20 minutes and were quenched with excess non-radioactive SAM (f.c.=100 μM). The reactions were then transferred to streptavidin-coated flashplates and incubated for 2 hours at 25° C. Following two washing cycles with 0.1% Tween-20, the plates were sealed and read on a TopCount (PerkinElmer, Waltham, Mass.) plate-based scintillation counter. For determination of kinetic parameters, reaction times were optimized so that measurements were taken during the initial velocity phase of the reaction.
Molecule CNc1ccc2ccc(OC[C@H]3O[C@@H](n4cc(C(F)(F)F)c5c(N)ncnc54)[C@@H](F)[C@@H]3O)cc2n1 [I-38] has an IC50 greater than 1000 nM.
In the case of CNc1ccc2ccc(OC[C@H]3O[C@@H](n4cc(Br)c5c(N)nccc54)[C@@H](F)[C@@H]3O)cc2n1 [I-41], the IC50 is reported as greater than 1000 nM.
CNc1ccc2ccc(OC[C@H]3O[C@@H](n4cc(C)c5c(N)ncnc54)[C@@H](F)[C@@H]3O)cc2n1 [I-44] showed an IC50 greater than 1000 nM.
CNc1ccc2ccc(OC[C@H]3C[C@@H](n4cc(C5CCCC5)c5c(N)ncnc54)C[C@@H]3O)cc2n1 [I-50] showed an IC50 greater than 1000 nM.
In the case of CCNc1ccc2ccc(OC[C@H]3O[C@@H](n4ccc5c(N)ncnc54)[C@H](O)[C@@H]3O)cc2n1 [I-67], the IC50 is reported as greater than 1000 nM.
With Nc1ncnc2c1ccn2[C@@H]1O[C@H](CCc2ccc3ccc(N4CCCC4)nc3c2)[C@@H](O)[C@H]1O [I-68] the IC50 was greater than 1000 nM.

What follows are molecules tested against PRMT5-MEP50 (Homo sapiens, UniProt O14744) (assay: PRMT5 Assay (PRMT5 biochemical assay)). Details: PRMT5 biochemical assay; read-out: PRMT5 IC50.
Sequence of PRMT5-MEP50 (O14744 whole entry): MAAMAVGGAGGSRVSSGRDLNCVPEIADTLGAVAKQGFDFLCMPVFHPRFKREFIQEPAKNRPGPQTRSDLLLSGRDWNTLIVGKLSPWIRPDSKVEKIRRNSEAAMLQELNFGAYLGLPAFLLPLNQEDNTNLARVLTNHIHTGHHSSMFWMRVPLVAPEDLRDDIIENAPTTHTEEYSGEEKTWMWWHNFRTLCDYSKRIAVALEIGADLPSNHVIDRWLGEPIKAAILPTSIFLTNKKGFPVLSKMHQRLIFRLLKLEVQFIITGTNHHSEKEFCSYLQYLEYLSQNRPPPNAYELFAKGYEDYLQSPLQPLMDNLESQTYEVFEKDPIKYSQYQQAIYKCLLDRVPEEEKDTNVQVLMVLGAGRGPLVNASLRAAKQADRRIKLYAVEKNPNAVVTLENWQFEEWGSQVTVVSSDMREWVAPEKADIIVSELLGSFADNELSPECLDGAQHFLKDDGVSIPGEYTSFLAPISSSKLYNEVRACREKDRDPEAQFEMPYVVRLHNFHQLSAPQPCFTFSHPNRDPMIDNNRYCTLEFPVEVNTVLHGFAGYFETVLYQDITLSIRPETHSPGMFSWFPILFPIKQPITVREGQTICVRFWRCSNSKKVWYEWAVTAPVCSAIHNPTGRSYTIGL
Sequence of PRMT5-MEP50 (Q9BQA1 whole entry partner): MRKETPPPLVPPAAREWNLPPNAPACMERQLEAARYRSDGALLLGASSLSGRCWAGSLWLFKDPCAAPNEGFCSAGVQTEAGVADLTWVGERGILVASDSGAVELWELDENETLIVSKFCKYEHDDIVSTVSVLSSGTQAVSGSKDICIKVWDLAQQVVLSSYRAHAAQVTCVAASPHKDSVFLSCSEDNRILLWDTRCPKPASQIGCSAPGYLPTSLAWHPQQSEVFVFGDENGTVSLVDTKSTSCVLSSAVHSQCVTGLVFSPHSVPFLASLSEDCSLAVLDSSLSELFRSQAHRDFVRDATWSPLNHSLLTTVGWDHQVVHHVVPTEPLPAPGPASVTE
In short: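 Radiometric methyltransferase read-out: after 60 min reaction, excess unlabelled SAM (15 μM) stops turnover and biotinylated H4 peptide (100 nM) carrying 3H-methyl from 250 nM 3H-SAM is captured on streptavidin flashplates (2 h, 25° C) for scintillation counting. Enzyme, 2.5 nM PRMT5-MEP50, was preincubated 5 min with compound in pH 8.0 Tris buffer with DTT and Tween.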
Molecule CNc1ccc2ccc(OC[C@H]3O[C@@H](n4cc(C(F)(F)F)c5c(N)ncnc54)[C@@H](F)[C@@H]3O)cc2n1 [I-38] has an IC50 of 100 to 1000 nM.
Work on CNc1ccc2ccc(OC[C@H]3O[C@@H](n4cc(Br)c5c(N)nccc54)[C@@H](F)[C@@H]3O)cc2n1 [I-41] yielded an IC50 of 100 to 1000 nM.
CNc1ccc2ccc(OC[C@H]3O[C@@H](n4cc(C)c5c(N)ncnc54)[C@@H](F)[C@@H]3O)cc2n1 [I-44] gave an IC50 of 10 to 100 nM.
CNc1ccc2ccc(OC[C@H]3C[C@@H](n4cc(C5CCCC5)c5c(N)ncnc54)C[C@@H]3O)cc2n1 [I-50] gave an IC50 of 100 to 1000 nM.
For CCNc1ccc2ccc(OC[C@H]3O[C@@H](n4ccc5c(N)ncnc54)[C@H](O)[C@@H]3O)cc2n1 [I-67], the IC50 was less than 10 nM.
Nc1ncnc2c1ccn2[C@@H]1O[C@H](CCc2ccc3ccc(N4CCCC4)nc3c2)[C@@H](O)[C@H]1O [I-68] was tested, and the IC50 was 100 to 1000 nM.

These molecules were tested on MOLM-13 cells (assay: MOLM-13 96 Hour Cell Proliferation Assay). Details: Homo sapiens, MOLM-13, 96 h.
Format: cell-based
Protocol: MOLM-13 (DSMZ) cells were seeded at 600 cells per well in a volume of 44 μL in a Greiner Bio-One CELLSTAR™ 384 Well Polystyrene Cell Culture clear bottom microplate in RPMI 1640 media containing 10% fetal bovine serum using a Multidrop Combi (ThermoFisher Scientific). Cells were incubated overnight at 37° C. in a humidified tissue culture incubator. To prevent evaporation or to reduce edge effect, add 50 μL or more H2O to an empty plate, cover, and place on top of the cell plates. The Mosquito® HTS Liquid Handler was used to make a compound/media intermediate plate by aliquoting 1 μL of compound from the initial compound dilution plate (concentrations ranging from 10.0 mM to 38.0 nM in 100% DMSO) into Bio-One 384-well polypropylene conical bottom microplate containing 49 μL of media containing the appropriate serum (50-fold dilution, 2% DMSO, compound concentrations ranging from 200.0 μM and […]). The Apricot liquid handling system was used to transfer 6.2 μL compounds from the intermediate plate into the seeding plate containing 44 μL cells (8-fold dilution spanning concentrations 25.0 μM to […], 0.25% DMSO final), and placed in a humidified tissue culture incubator at 37° C. After 96 hours, 25 μL of Cell Titer-Glo reagent (Promega) was added to each well using an Integra liquid handling system. The plate was protected from light using TopSeal-A (Black) film over the entire plate, added White Bottom seal film on the bottom of the entire plate for a better reading on the Envision, and placed on an IKA plate shaker for at 300 rpm for 10 minutes at room temperature. The plate was read on an EnVision plate reader (Perkin Elmer) using the Ultra Sensitive Luminescence protocol. Data analysis was performed by normalizing the raw luminescence units to an average of the positive control values for staurosporine (100% cell death) and the negative control values for DMSO (0% cell death). An IC50 was calculated using a 4-parameter logistic nonlinear regression model in GraphPad Prism.
Nc1ncnc2c1ccn2[C@@H]1O[C@H](CCc2ccc3ccc(N4CCCC4)nc3c2)[C@@H](O)[C@H]1O [I-68] showed an IC50 of 1 to 10 µM.
